Assay results from US7259145B2, “Mechanically activated channel blocker” (The Research Foundation of State University of New York, priority 2004, dated 2007).
pKd: −log10 of the molar value. “Also recorded” adds a separate entry of the source. Non-standard residues stand in square brackets, D forms with d. No end group written: not given here.

Tests used:
[1] = tested on: stretch-activated channels (SACs); assay: SAC currents, outside-out patch of chick heart cells; type: cell-based
Description: (§1) Primary reactive rat astrocytes cultures (passages 4 to 10) were prepared as previously described. Primary cultures of chick heart cells were prepared from 11-day-old embryos as previously described (Bett et al., J. Membr. Biol. 173, 237-254, 2000).
(§2) Outside-out patches were formed using pipettes containing 140 mM KCl, 2 mM MgCl2, 10 mM HEPES and 0.5 mM EGTA (as K ? salts). SAC currents were recorded using an Axopatch 200B patch clamp, with pClamp9 software and a Digidata 1322A acquisition system (Axon Instruments). Pressure was applied to the patch pipette with an HSPC-1 pressure clamp, and the patch was perfused using an ALA MP285 perfusion system (ALA Scientific Instruments). GsMTx4 or analog was dissolved in the perfusion solution: 140 mM NaCl, 10 mM Na-HEPES, 5 mM KCl, and 1 mM MgCl2. All experiments were repeated […] times.

[2] = Binding to large unilamellar lipid vesicles by tryptophan fluorescence; type: physicochemical
Description: Fluorescence measurements were performed as described by Ladokhin et al. (Anal. Biochem. 285, 235245, 2000) with an AMJNCO-Bowman Series 2 spectrofluorimeter. The excitation and emission wavelengths were 280 nm (8 nm band pass, 08 polarizer) and 346 nm (16 nm band pass, 908 polarizer). Large unilamellar vesicles of egg lecithin (Avanti Polar Lipids) were formed by extrusion. Tryptophan (Sigma) and GsMTx4 titration experiments were performed in 8 mM phosphate buffer containing 1 mM EGTA at pH 7. Three spectra were collected at each lipid concentration with both tryptophan and GsMtx4 (both at 30μM). After background subtraction, the mean fluorescence intensity at each lipid concentration was corrected for vesicle scattering (Ladokhin et al., Anal. Biochem, 285, 235245, 2000) and normalized to the zero lipid fluorescence intensity. The results are reported assuming a vesicle diameter of 130 nm, and area per lipid in the monolayer of 0.7 nm2.
To determine if GsMTx4 functions by altering bilayer properties, using the tryptophan fluorescence (Ladokhin et al., supra) of GsMTx4, we measured its binding to large unilamellar lipid vesicles. […]

[3] = tested on: stretch-activated channels (SACs); assay: SAC currents, outside-out patch of rat astrocytes (pressure clamp); type: cell-based; details: for inhibition of SACs (averaged current): 5 μM, rat astrocyte outside-out patch, FIG. 2
Description: as §1, §2

cationic SACs [4] = assay: Inhibition and gating of cationic SACs in vertebrate cell types (affinity, apparent rates); type: cell-based
Description: GsMTx4 inhibits ubiquitous cationic SACs in a variety of vertebrate cell types (200-600 nM, for example, chick heart, rat astrocytes and skeletal muscle, and human smooth muscle) (Gottlieb et al., Current Drug Targets—CNS & Neurological Disorders 3:287-295, 2004) despite the fact that they have different kinetic properties and presumably different structure. […] While not intending to be bound by any particular theory, it is believed, based on predictions using the Poisson-Boltzmann models, that this effect is seen when GsMTx4 is located within about 1.5 nm of the channel vestibule.
To determine if GsMTx4 functions by altering bilayer properties, using the tryptophan fluorescence (Ladokhin et al., supra) of GsMTx4, we measured its binding to large unilamellar lipid vesicles. The partition coefficient, defined as ([GsMTx4]bil/[Lipid])/([GsMTx4]aq/[H2O]) (where the subscripts denote the bilayer and aqueous phases, respectively, for example see White et al., Methods Enzymol. 295, 62-87, 1998), was ˜3×10^5 corresponding to an adsorption coefficient of 10 ^−3 cm (defined as ^2bil/[GsMTx4 ]aq, where ^2bil denotes the surface density, in moles per unit area). […] This has two implications. First, the intrinsic affinity between a lipid-bound GsMTx4 and the channel could be quite modest and yet account for the observed KD (Kim et al., Biophys. J. 60, 135148, 1991). Second, the mean surface density of GsMTx4 is sufficiently high that fast exchange (50 ms) between the bulk bilayer and the lipids adjacent to the channel can alter the local (and global) bilayer mechanical properties. The apparent association and dissociation rates for SAC effects (Ka≈10^6 M^−1 s^−1, KD≈0.2 s^−1) are consistent with such a fast exchange (as well as slower, more specific binding).

TRPC1 = assay: Stretch activated channels in CHO cells transfected to express TRPC1; type: cell-based; details: CHO cells expressing TRPC1
cationic SACs [5] = details: chick heart, rat astrocytes and skeletal muscle, human smooth muscle; cited from earlier work
gA channels = assay: Gramicidin (gA) channel gating in lipid bilayer; type: biochemical
Description: FIG. 3 is a representation of the effect of GsMTx4 on gA channels. a, Current traces before and after addition of 200 nM GsMTx4 to both sides of a bilayer doped with chain-shortened des-Val 1-Gly 2-gA (gA2(13)) and [Ala 1]gA (AgA(15)) (numbers in parenthesis denote number of residues in the sequence): gA2 is the enantiomer of gA20. b, c, Single-channel currents (b) and lifetimes (c) as a function of GsMTx4 concentration (see Methods). d, Average lifetime (t) as a function of channel length, helix sense and identity of the aromatic at the channel/solution interface. gA2(13) and AgA(15) as above, AgA2(15) is [D-Ala 1]gA2, gT is [Tyr9,11,13,15]gA (ref. 21). 200 nM GsMTx4; columns and error bars denote mean±s.d. (n≧3).
The effect of L-GsMTx-4 on gA gating was first determined. gA channels are dimers formed by the transbilayer association of monomers in opposing monolayers (O'Connell et al., Science 250, 1256-1259, 1990). Channel formation is generally associated with local bilayer thinning, which makes gA monomer ⇄ dimer equilibrium and thus the channel lifetime and appearance rate sensitive to bilayer thickness, elastic moduli and curvature stress. Thus, if GsMTx4 binds to the lipid bilayer, one would expect it to also alter the lipid packing adjacent to the channel and thus the gA gating kinetics and, because it is cationic decrease the channel current.

[6] = 5 mM GsMTx4 [sic], chick heart outside-out patch

In the case of GsMTx4, the “reduction of average inward currents” value [1, 6] was 70%, the “reduction of average outward currents” value [1, 6] was 90% and the “unitary current amplitude, inward” value ([1]; 5 mM GsMTx4 [sic], 250 mV pipette potential as printed, control 1.74 pA) was 1.58 pA. The “unitary current amplitude, outward” value ([1]; 5 mM GsMTx4 [sic], pipette potential printed 150 mV / 50 mV, control 1.10 pA) was 1.08 pA, the “change in outward unitary current amplitude” value ([1]; in presence of GsMTx4) was “no change; also recorded: no observable effect” and the “reduction in inward unitary current amplitude” value ([1]; in presence of GsMTx4) was 10%. For the same substance, the adsorption coefficient ([2]; corresponding to the partition coefficient) was 10 ^−3 cm, the “partition coefficient ([GsMTx4]bil/[Lipid])/([GsMTx4]aq/[H2O])” value ([2]; large unilamellar lipid vesicles, pH 7) was ~3×10^5 and the “suppression of average inward current” value ([3]; 5 μM GsMTx4 (b40 also prints 5 mM), outside-out astrocyte patch) was 80%. For the same substance, the “open state dwell time distribution” value ([3]; 5 μM GsMTx4, data not shown) was “not affected”, the “inhibition of SACs (averaged current)” value [3] was “both inhibit SACs” and the “membrane tension required for SAC activation” value ([3]; applied to extracellular face, FIGS. 1a and 1b) was “increasing the membrane tension required for activation”. For the same substance, the “apparent association rate for SAC effects (Ka)” value (cationic SACs [4]) was “≈ 10^6 M^−1 s^−1”, the “apparent dissociation rate for SAC effects (KD)” value (cationic SACs [4]) was “≈ 0.2 s^−1” and the pKd (cationic SACs [4]; SAC gating, read-out: effective KD for gating) was 6.30. For the same substance, the “inhibition of stretch activated channels” value (TRPC1) was “inhibited stretch activated channels”, the “concentration inhibiting cationic SACs” value (cationic SACs [5]) was 200 to 600 nM and the gA single-channel current (gA channels; FIG. 3b) was “reduces the single-channel current”. For the same substance, the “increase in gA channel appearance rate” value (gA channels; GsMTx4, FIG. 3) was 10-25 fold and the “increase in gA open channel lifetime” value (gA channels; GsMTx4, FIG. 3c) was “approximately 2 fold”.

In the case of “D-GsMTx4: All-D-amino-acid enantiomer of GsMTx4, SEQ ID NO:1 GCLEFWWKCNPNDDKCCRPKLKCSKLFKLCNFSF-amide (G[dC][dL][dE][dF][dW][dW][dK][dC][dN][dP][dN][dD][dD][dK][dC][dC][dR][dP][dK][dL][dK][dC][dS][dK][dL][dF][dK][dL][dC][dN][dF][dS][dF]-NH2; not fully specified (bridges); printed as GCLEFWWKCNPNDDKCCRPKLKCSKLFKLCNFSF-amide; ends and bridges not checked; also: three disulfides after oxidative folding, pairing not given here)”, the “inhibition of SACs (averaged current)” value [3] was “equivalent efficacy to the wild type L-form; also recorded: inhibit SACs with similar efficacy to GsMTx4; also recorded: at least as potent and may be more potent than L-GsMTx-4”, the “increase in gA channel appearance rates” value (gA channels; 400 nM D-GsMTx4) was 10 fold and the “increase in gA channel lifetime” value (gA channels; 400 nM D-GsMTx4) was 4 fold.
